In patent US11414425B2 (priority 2018, dated 2022):

The compounds below were run against α5β3γ2 GABAA receptors (Homo sapiens, UniProt P18507+P31644) (assay: [3H]Ro15-1788 binding, membranes of Ltk cells stably expressing α5β3γ2 GABAA receptors). Details: not given.
Sequence of α5β3γ2 GABAA receptors (P31644 32-462): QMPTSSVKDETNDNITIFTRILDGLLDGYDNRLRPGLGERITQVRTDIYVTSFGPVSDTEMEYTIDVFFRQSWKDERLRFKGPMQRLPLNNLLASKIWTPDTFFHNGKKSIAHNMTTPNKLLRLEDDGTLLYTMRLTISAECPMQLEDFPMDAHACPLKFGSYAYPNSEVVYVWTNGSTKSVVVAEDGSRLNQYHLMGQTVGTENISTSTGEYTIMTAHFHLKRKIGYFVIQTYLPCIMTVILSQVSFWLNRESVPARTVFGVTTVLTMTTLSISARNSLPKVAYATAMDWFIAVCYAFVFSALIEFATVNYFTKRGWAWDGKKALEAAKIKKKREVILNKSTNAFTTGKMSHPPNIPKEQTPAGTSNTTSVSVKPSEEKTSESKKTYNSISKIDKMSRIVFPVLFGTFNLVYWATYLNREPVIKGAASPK
Sequence of α5β3γ2 GABAA receptors (P28472 26-473 partner): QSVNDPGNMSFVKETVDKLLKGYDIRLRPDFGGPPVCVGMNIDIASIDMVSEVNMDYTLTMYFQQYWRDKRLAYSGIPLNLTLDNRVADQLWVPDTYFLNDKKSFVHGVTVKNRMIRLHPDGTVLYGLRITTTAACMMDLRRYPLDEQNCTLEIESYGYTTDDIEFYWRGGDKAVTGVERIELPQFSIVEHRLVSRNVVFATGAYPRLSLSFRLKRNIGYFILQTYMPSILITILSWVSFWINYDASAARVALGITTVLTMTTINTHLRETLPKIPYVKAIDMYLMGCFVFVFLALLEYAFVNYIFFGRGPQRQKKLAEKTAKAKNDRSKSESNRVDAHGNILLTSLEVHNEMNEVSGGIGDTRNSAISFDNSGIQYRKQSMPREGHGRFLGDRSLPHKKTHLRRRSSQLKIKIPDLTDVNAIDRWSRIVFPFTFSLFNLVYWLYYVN
Sequence of α5β3γ2 GABAA receptors (P18507 40-475): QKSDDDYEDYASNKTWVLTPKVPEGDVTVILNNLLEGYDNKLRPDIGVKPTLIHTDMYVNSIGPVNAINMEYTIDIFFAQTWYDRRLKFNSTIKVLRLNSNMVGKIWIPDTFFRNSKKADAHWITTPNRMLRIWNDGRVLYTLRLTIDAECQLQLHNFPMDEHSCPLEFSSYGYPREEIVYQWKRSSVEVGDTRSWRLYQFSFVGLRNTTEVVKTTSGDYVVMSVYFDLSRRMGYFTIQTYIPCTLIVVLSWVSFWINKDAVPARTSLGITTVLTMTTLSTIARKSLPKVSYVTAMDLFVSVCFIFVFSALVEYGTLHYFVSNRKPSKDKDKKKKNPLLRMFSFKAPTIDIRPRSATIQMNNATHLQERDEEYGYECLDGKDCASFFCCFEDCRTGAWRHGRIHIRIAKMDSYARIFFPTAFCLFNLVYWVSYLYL

Row | SMILES | Ki
1 | COCc1nnn2c1Cc1c(C#Cc3cnc(OC)s3)ncn1-c1ccc(OC)cc1-2 [Compound 647] | < 100 nM
2 | Clc1ccc2c(c1)-n1nncc1Cc1c(C#Cc3cnc4occc4c3)ncn1-2 [Compound 658] | < 100 nM
3 | Cc1ncc(C#Cc2ncn3c2Cc2cnnn2-c2cc(Cl)ccc2-3)[nH]1 [Compound 659] | < 100 nM
4 | Cn1ccc(C#Cc2ncn3c2Cc2cnnn2-c2cc(Cl)ccc2-3)n1 [Compound 661] | < 100 nM
5 | COc1n[nH]cc1C#Cc1ncn2c1Cc1cnnn1-c1cc(Cl)ccc1-2 [Compound 662] | < 100 nM
6 | COc1ccc2c(c1)-n1nncc1Cc1c(C3=NC[C@@H](c4cccc(F)c4)O3)ncn1-2 [Compound 692] | < 100 nM
7 | COc1ccc2c(c1)-n1nncc1Cc1c(C#Cc3ccc(OC(F)F)nc3)ncn1-2 [Compound 693] | < 100 nM
8 | CC(C)Oc1ccc(C#Cc2ncn3c2Cc2cnnn2-c2cc(Cl)ccc2-3)cn1 [Compound 697] | < 100 nM

Same assay, conditions: ranges; inhibition of [3H]Ro15-1788 binding

Row | SMILES | Ki
9 | CC1(C)OC(c2ncn3c2Cc2cnnn2-c2cc(OC(F)F)ccc2-3)=N[C@H]1c1ccccc1 [Compound 626] | 100 to 1000 nM
10 | Clc1ccc2c(c1)-n1nncc1Cc1c(C3=NCC(c4ccncc4)O3)ncn1-2 (stereo not shown) [Compound 629] | < 100 nM
11 | COCc1nnn2c1Cc1c(C3=NC[C@@H](c4ccc(Cl)cc4)O3)ncn1-c1ccc(Cl)cc1-2 [Compound 634] | < 100 nM
12 | COCc1nnn2c1Cc1c(C#Cc3ccnn3C)ncn1-c1ccc(Cl)cc1-2 [Compound 642] | < 100 nM
13 | COCc1nnn2c1Cc1c(C#Cc3ccn(C)n3)ncn1-c1ccc(Cl)cc1-2 [Compound 643] | < 100 nM
14 | COCc1nnc2n1Cc1c(C#Cc3c[nH]nc3OC)ncn1-c1ccc(OC)cc1-2 [Compound 657] | < 100 nM
15 | Cn1nccc1C#Cc1ncn2c1Cc1cnnn1-c1cc(Cl)ccc1-2 [Compound 660] | < 100 nM
16 | COCc1nnc2n1Cc1c(C#Cc3c[nH]nc3OC)ncn1-c1ccc(Cl)cc1-2 [Compound 664] | < 100 nM
17 | COCc1nnc2n1Cc1c(C#Cc3ccc(SC)nc3)ncn1-c1ccc(OC)cc1-2 [Compound 665] | 100 to 1000 nM
18 | COCc1nnc2n1Cc1c(C#Cc3ccc4nccn4c3)ncn1-c1ccc(OC)cc1-2 [Compound 684] | 100 to 1000 nM
19 | COc1ccc2c(c1)-n1nncc1Cc1c(C#Cc3ccc(OC)nn3)ncn1-2 [Compound 694] | < 100 nM
20 | COCc1nnc2n1Cc1c(C#Cc3ccc(OCC4CC4)nc3)ncn1-c1ccc(Cl)cc1-2 [Compound 700] | < 100 nM
21 | Clc1ccc2c(c1)-n1nncc1Cc1c(C#Cc3ccc(-n4cccc4)cc3)ncn1-2 [Compound 702] | < 100 nM
22 | COCc1nnc2n1Cc1c(C#Cc3ccc(OC(C)C)nc3)ncn1-c1ccc(Cl)cc1-2 [Compound 708] | < 100 nM
23 | CCOc1ccc(C#Cc2ncn3c2Cn2c(COC)nnc2-c2cc(Cl)ccc2-3)cn1 [Compound 709] | 100 to 1000 nM
24 | COCc1nnc2n1Cc1c(C#Cc3ccc(-n4cccc4)cc3)ncn1-c1ccc(OC)cc1-2 [Compound 713] | < 100 nM
25 | COCc1nnc2n1Cc1c(C#Cc3ccc4ncccc4c3)ncn1-c1ccc(OC)cc1-2 [Compound 714] | < 100 nM
26 | Clc1ccc([C@@H]2CN=C(c3ncn4c3Cc3cnnn3-c3cc(Cl)ccc3-4)O2)cc1 [Compound 719] | < 100 nM
27 | Clc1ccc([C@H]2CN=C(c3ncn4c3Cc3cnnn3-c3cc(Cl)ccc3-4)O2)cc1 [Compound 720] | < 100 nM
28 | COCc1nnc2n1Cc1c(C#CC(C)(C)C)ncn1-c1ccc(Cl)cc1-2 [Compound 721] | < 100 nM
